According to patent US9187496B2 (priority 2009, dated 2015):
Like-named read-outs stand apart in the source and are kept apart here.

What was measured:
[1] = test system: Huh-7 cells containing HCV Con1 subgenomic replicon (GS4.1 cells); experiment: HCV replicon assay (NS5A ELISA); type: cell-based; conditions: Hepatitis C virus, Huh-7; GS4.1 cells, 72 hrs, NS5A ELISA; read-out: EC50
In short: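 GS4.1 cells dosed 3 h after seeding with ten 2-fold dilutions from 75 μM, or single 15 μM, in 0.5% DMSO for 72 h at 37° C; NS5A measured by ELISA (A-236 antibody, OPD, A492). EC50 from four-parameter sigmoidal fit of % inhibition.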

[2] = Cytotoxicity evaluation in GS4.1 cells (Cell Titer 96 AQueous One); type: cell-based, human; conditions: human, cellular viability
Experimental: For cytotoxicity evaluation, GS4.1 cells were treated with compounds as described above and cellular viability was monitored using the Cell Titer 96 AQueous One Solution Cell Proliferation Assay (Promega). CC50 values were determined from the % cytotoxicity versus concentration data with Tecan Magellan software as described above.

[3] = test system: HCV genotype 1b Conl strain subgenomic luciferase replicon (Zluc); experiment: Luciferase replicon assay, genotype 1b; type: cell-based; conditions: Hepatitis C virus, 72 h, read-out: EC50 1b
Experimental: (§1) The HCV luciferase replicon assay measures the ability of a test compound to inhibit HCV replication in cell culture after 3 days of treatment in a human hepatoma cell line (Huh-7) bearing a HCV replicon containing a luciferase-neomycin phosphotransferase fusion gene. The inhibition of HCV replication was measured by quantification of luciferase protein expression. Briefly, Huh-7 cells containing either the HCV genotype 1a H77 strain or genotype 1b Conl strain subgenomic luciferase replicon (H1a-luc or Zluc, respectively) were grown in DMEM containing glucose, L-glutamine and sodium pyruvate, 10% fetal bovine serum (FBS), 100 IU/mL penicillin, 100 μg/mL streptomycin, 2 mM GlutaMAX, non-essential amino acids and 0.25 (H1a-luc) or 0.5 (Zluc) mg/mL G418. GlutaMAX was obtained from Invitrogen, Corp.; all other media reagents were obtained from Mediatech, Inc. For dose-response testing, the cells were seeded in 96-well plates at 1×10^4 (H1a-luc) or 7.5×10^3 (Zluc) cells/well in a volume of 50 μL, and incubated at 37° C./5% CO2. Three hours after plating, 50 μL of ten 5-fold serial dilutions of compound were added, and cell cultures were incubated at 37° C./5% CO2 for 72 hours. In all cases, Huh-7 cells lacking the HCV replicon served as negative control. To assess luciferase expression, the media/compound was removed from the plates and ONE-glo Luciferase assay reagent (Promega) was added to each well. The assay plates were shaken for 3 minutes at room temperature and luciferase activity for each well was measured with a 1 sec read time on the Victor^3V multilabel counter using a 700 nm cut-off filter (Perkin Elmer). EC50 values were calculated from dose response curves from the resulting best-fit equations determined by Microsoft Excel and XLfit 4.1 software.

[4] = test system: HCV genotype 2a-specific NS5A gene within the 1b-replicon; experiment: Luciferase replicon assay, NS5A-intergenotypic stable cell line genotype 2a; type: cell-based; conditions: Hepatitis C virus, read-out: EC50 2a
Text: (§2) The nucleotide sequences of the NS5A region of genotype 2a (GenBank Accession #AB047639), genotype 3a (GenBank Accession #D17763), and genotype 4a (GenBank Accession#DQ418788) were synthesized by an outside vendor. The NS5A region of each of these genotypes included the first 11 amino acids of the protease recognition sequence of genotype 1b, as well as the last 10 amino acids of genotype 1b. The NS5A gene cassettes were excised with site specific restriction endonucleases and ligated into a ZS11-luciferase genotype 1b backbone (backbone contains the genotype 1b NS3 protease, NS4a, NS4b, and NS5b coding regions) with similarly cut restriction enzyme sites. Thus, the newly constructed plasmid contains a genotype 2a-, 3a- or 4a-specific NS5A gene within the 1b-replicon.
(§3) These new intergenotypic plasmids were used to establish stable cell lines. RNA was generated from the NS5A intergenotypic plasmids and used in conjunction with a lipofectin reagent to transfect a cured Huh7 cell line. Transfected cells were selected for with G418. After selection has occurred the stable cell lines were propagated, tested for luciferase activity, and RT-PCR with genotype specific primers (either 1a, 2a, 3a, or 4a). Stable cell lines containing the intergenotypic replicon were then fully sequenced and analysed for proper expression of NS3, NS5A and NS5B proteins.
(§4) Drug titration analysis was performed using the luciferase replicon assay described herein.
as §1

[5] = test system: HCV genotype 3a-specific NS5A gene within the 1b-replicon; experiment: Luciferase replicon assay, NS5A-intergenotypic stable cell line genotype 3a; type: cell-based; conditions: Hepatitis C virus, read-out: EC50 3a
Text: as §2, §3, §4, §1

[6] = test system: HCV genotype 4a-specific NS5A gene within the 1b-replicon; experiment: Luciferase replicon assay, NS5A-intergenotypic stable cell line genotype 4a; type: cell-based; conditions: Hepatitis C virus, read-out: EC50 4a
Text: as §2, §3, §4, §1

[7] = test system: HCV genotype 1a H77 strain (H1a-luc replicon / 1a-H77NS5a intergenotypic replicon); experiment: Luciferase replicon assay, genotype 1a; type: cell-based
Text: To generate the 1a-H77NS5a intergenotypic plasmid, dual cut sites were inserted into the ZS11-luciferase genotype 1b backbone that would bracket the NS5a region almost in its entirety. Using PCR and 1a-H77 specific primers also containing the corresponding restriction enzyme sites, the NS5a gene was amplified from the 1a-H77 replicon. The ZS11-luciferase genotype 1b backbone and the genotype 1a NS5a PCR products were restriction enzyme digested and then ligated using standard molecular cloning techniques. The newly constructed plasmid contains the genotype 1a-specific NS5a gene where as the backbone remains 1b as described herein.
as §3, §4, §1

[8] = Cytotoxicity evaluation in luciferase replicon cells (Cell Titer 96 AQueous One); type: cell-based, human; conditions: human; Table 1B, cellular viability
Experimental: For cytotoxicity evaluation, H1a-luc or Zluc cells were treated with compounds as described above and cellular viability was monitored using the Cell Titer 96 AQueous One Solution Cell Proliferation Assay (Promega). Plates were then read at 490 nm in a Victor^3V 1420 multilabel counter (Perkin Elmer) and CC50 concentrations were determined using Microsoft Excel and XLfit 4.1 software.

[9] = Hepatitis C virus, read-out: EC50 1a, genotype 1a

Compound	EC50 [1] [nM]	CC50 [2] [nM]	EC50 [3] [nM]	EC50 [4] [nM]	EC50 [5] [nM]	EC50 [6] [nM]	EC50 [7, 9] [nM]	CC50 at 72 h [8] [nM]	EC50 ([7]; read-out: EC50 1a, genotype 1a) [nM]
COC(=O)N[C@H](C(=O)N1CCC[C@H]1c1ncc(-c2ccc(-c3csc4c(-c5ccc(-c6cnc([C@@H]7CCCN7C(=O)[C@@H](NC(=O)OC)C(C)C)[nH]6)cc5)csc34)cc2)[nH]1)C(C)C [Compound A86, ((S)-1-((S)-2-(5-{4-[6-{4-{2-[(S)-1-((S)-2-methoxycarbonylamino-3-methyl-butyryl)-pyrrolidin-2-yl]-3H-imidazol-4-yl}-phenyl)-thieno[3,2-b]thiophen-3-yl]-phenyl}-1H-imidazol-2-yl)-pyrrolidine-1-carbonyl]-2-methyl-propyl}-carbamic acid methyl ester]	< 1	10000 to 75000	< 0.1	1 to 10	1 to 10	< 0.1	0.1 to 1	10000 to 75000	–
COC(=O)N[C@H](C(=O)N1CCC[C@H]1c1ncc(-c2ccc(-c3cc4sc(-c5ccc6[nH]c([C@@H]7CCCN7C(=O)[C@H](NC(=O)OC)c7ccccc7)nc6c5)cc4s3)cc2)[nH]1)C(C)C [Compound A194, [(S)-1-((S)-2-{4-[4-(5-{(S)-2-[1-((R)-2-methoxycarbonylamino-2-phenyl-acetyl)-pyrrolidin-2-yl]-3H-benzoimidazol-5-yl}-thieno[3,2-b]thiophen-2-yl)-phenyl]-1H-imidazol-2-yl}-pyrrolidine-1-carbonyl)-2-methyl-propyl]-carbamic acid methyl ester]	–	–	< 0.1	1 to 10	0.1 to 1	< 0.1	0.1 to 1	> 75000	–
COC(=O)N[C@H](C(=O)N1CCCC1c1ncc(-c2csc3c(-c4ccc(-c5cnc(C6CCCN6C(=O)[C@H](NC(=O)OC)c6ccccc6)[nH]5)cc4)csc23)[nH]1)C(C)C (stereo partly drawn) [Compound A114]	–	–	< 0.1	< 0.1	< 0.1	< 0.1	0.1 to 1	–	< 0.1
COC(=O)N[C@H](C(=O)N1CCC[C@H]1c1nc2ccc(-c3csc4c(-c5ccc6nc([C@@H]7CCCN7C(=O)[C@H](NC(=O)OC)c7ccccc7)[nH]c6c5)csc34)cc2[nH]1)C(C)C [Compound A208]	–	–	< 0.1	< 0.1	< 0.1	< 0.1	< 0.1	> 75000	–
COC(=O)N[C@H](C(=O)N1CCC[C@H]1c1nc(-c2ccc(-c3csc4c(Br)csc34)cc2)c[nH]1)C(C)C [Compound A155, [(S)-1-((S)-2-{4-[4-(6-bromo-thieno[3,2-b]thiophen-3-yl)-phenyl]-1H-imidazol-2-yl}-pyrrolidine-1-carbonyl)-2-methyl-propyl]-carbamic acid methyl ester]	10 to 100	10000 to 75000	–	–	–	–	–	–	–
COC(=O)N[C@@H](C(=O)N1CCCC1c1ncc(-c2cn3cc(-c4ccc(-c5cnc([C@@H]6CCCN6C(=O)[C@H](NC(=O)OC)c6ccccc6)[nH]5)cc4)nc3s2)[nH]1)c1ccccc1 (stereo partly drawn) [A60]	< 1	> 75000	–	–	–	–	–	–	–
COC(=O)NC(C(=O)N1CCCC1c1ncc(-c2cc3sc(-c4ccc5[nH]c(C6CCCN6C(=O)C(NC(=O)OC)C(C)C)nc5c4)cc3s2)[nH]1)C(C)C (stereo in doubt) [Compound A176, ((S)-1-{(S)-2-[5-(5-{(S)-2-[1-((S)-2-methoxycarbonylamino-3-methyl-butyryl)-pyrrolidin-2-yl]-3H-benzoimidazol-5-yl}-thieno[3,2-b]thiophen-2-yl)-1H-imidazol-2-yl]-pyrrolidine-1-carbonyl}-2-methyl-propyl)-carbamic acid methyl ester]	–	–	< 0.1	0.1 to 1	0.1 to 1	0.1 to 1	0.1 to 1	10000 to 75000	–
